The record followed here is patent EP0717040A1, “Thiazine or thiazepine derivatives which inhibit NOS” (Japan Tobacco Inc., priority 1994, dated 1996).

Counter-ions that a name gives are not always drawn. Like-named read-outs stand apart in the source and are kept apart here.

The target of assay [1] is T1, constitutive NO synthase (cNOS) (Rattus norvegicus, UniProt P29476).
T1 construct: cNOS was extracted from a rat cerebellum; from tissue; host or cells: rat cerebellum
The assay can be described thus: Activity to inhibit constitutive NO synthase (cNOS) derived from rat cerebellum; conversion of [3H]-L-arginine to [3H]-L-citrulline. It counts as biochemical. As to the method:
Activity to inhibit constitutive NO synthase (cNOS) derived from rat cerebellum
The inhibition activity was tested according to a method of P. A. Bush et al. (Biochem, Biophys, Res. Commun., 185, 960-966 (1992)), using [³H]-L-arginine as a substrate and taking the conversion of [³H]-L-arginine to [³H]-L-citrulline as an index of the enzyme activity.
The test was conducted as follows: First, cNOS was extracted from a rat cerebellum with a 50 mM Tris-HCl buffer solution (pH 7.4) which contains 0.1 mM EDTA (ethylenediamine tetraacetate), 0.1 mM EGTA (ethyleneglycol bis(β-aminoethyl ether)-tetraacetate), 0.5 mM DTT (dithiothreitol), 1 µM PMSF (phenylmethylsulfonyl fluoride), 1 µM bestatin A, and 1 µM leupeptin. To the cNOS thus extracted, a 50 mM Tris-HCl buffer solution (pH 7.4) containing 10 µM L-arginine, 10 µM NADPH, 2 mM calcium chloride and calmoduline (0.1 µg), together with a test compound and [³H]-L-arginine were added. The mixture was incubated for 10 minutes at 25°C. The reaction was terminated by adding 20 mM sodium acetate buffer solution (pH 5.5) containing 1 mM L-citrulline, 2 mM EDTA, and 0.2 mM EGTA. The reaction solution was passed through a cation-exchange resin. This eluate was combined with another eluate which was obtained thereafter by eluting with water. To the combined eluate, a liquid scintillation cocktail was further added and its radioactivity (A) was measured. At the same time, the radioactivity (B) with respect to the case where the test compound was not added and the radioactivity (C) with respect to the case where an enzyme fraction was not added, were respectively measured. Then, the rate of cNOS inhibition was calculated in accordance with the following equation. The concentration (IC₅₀), at which the test compound can inhibit 50 % of the enzyme activity, were also calculated. Inhibition rate (%) = {1 - (A - C/B - C)} × 100 [formula]

The target in assay [2] is T2, endothelium nitric oxide synthase (eNOS) (Rattus norvegicus, UniProt Q62600).
T2 construct: from tissue; host or cells: living anesthetized rat
The assay can be described thus: Blood pressure elevating activity in rat by inhibition of eNOS. It counts as in vivo. The conditions noted are these: dose to elevate mean blood pressure by 25 mmHg; anesthetized rat, administered via femoral vein. As to the method:
Blood pressure elevating activity in rat by inhibition of endothelium nitric oxide synthase (eNOS) A rat was anesthetized with by peritoneal injection of sodium barbital (300 mg/kg) and catheters were inserted into a femoral artery and a femoral vein. Blood pressure was measured through the catheter inserted in the femoral artery and a test compound was administered through the catheter inserted in the femoral vein. […]

The target in assay [3] is T3, neuronal NOS (nNOS) (Rattus norvegicus, UniProt P29476).
T3 construct: from tissue; host or cells: living rat (brain)
The assay can be described thus: Effect on rat cerebral ischemia model by inhibition of nNOS: reperfusion model. Format: in vivo. The conditions noted are these: 10 minutes before occlusion, immediately before and 3 hours after reperfusion, infarct area after 48 hours. The source says: Effect on rat cerebral ischemia model by inhibition of neuronal NOS (nNOS): reperfusion model
A rat (weight: 300 g) was fasted overnight and a middle cerebral artery of the rat was occluded and then reperfused to prepare a cerebral ischemia model, according to the method of Koizumi et al. (Jpn. J. Stroke, 8, 1-8 (1986)). More specifically, a rat breathing naturally was immobilized under anesthesia with a laughing gas - oxygen mixed gas and halothane, and then, underwent cervical median dissection. A silicon-coated nylon thread was inserted into an internal carotid artery from a branched portion at which a right external carotid artery and the internal carotid artery is divided, thereby blocking the middle cerebral artery for 1.5 hours. Thereafter, the occluding of the middle cerebral artery was reperfused by removing a thread. After 48 hours, 6 coronal sections were prepared and stained by means of a triphenyltetrazolium chloride method. Non-stained portions were determined as infarct area. The test compound was intravenously injected 10 minutes before the occlusion of middle cerebral artery, immediately before, and 3 hours after reperfusion. The inhibitory effect of each compound was determined.

Assay [4] concerns the target T4, inducible NO synthase (iNOS) (Rattus norvegicus, UniProt Q06518). The assay can be described thus: Activity to inhibit inducible NO synthase (iNOS) derived from rat macrophages; conversion of [3H]-L-arginine to [3H]-L-citrulline. Details: iNOS was extracted from the macrophages which have been treated with lipopolysaccharide and interferon-γ; endogenous in cells; host or cells: rat peritoneal macrophages treated with lipopolysaccharide and interferon-γ. It counts as biochemical. How it is done: Activity to inhibit inducible NO synthase (iNOS) derived from rat macrophages
According to partly modified method of Y. Yui et al.(J. Biol. Chem., 266 (19), 12544-12547 (1991)), an iNOS fraction was prepared by applying lipopolysaccharide and interferon-γ to peritoneal macrophages. Thereafter, its enzymatic activity was measured based on the conversion of [³H]-L-arginine to [³H]-L-citrulline, in the same manner as in the case of cNOS.
To the iNOS thus extracted, a 50 mM Tris-HCl buffer solution (pH 7.4) containing 150 µM L-arginine, 5 mM NADPH, 5 mM DTT, 0.5 mM 5,6,7,8-tetrahydro-L-biopterin and 5 µM FAD was added together with a test compound and [³H]-L-arginine. The mixture was incubated for 30 minutes at 37°C. Thereafter, the reaction was terminated by adding a 25 mM sodium acetate buffer solution (pH 5.5) containing 1.25 mM L-citrulline, 2.5 mM EDTA and 0.25 mM EGTA. The reaction solution was passed through a cation-exchange resin. The obtained eluate was combined with the additional eluate obtained thereafter by eluting with water, and the radioactivity of the combined eluate was measured. The inhibition rate of the test compound on iNOS was calculated in the same manner as in Test 1. The concentration (IC₅₀) of the test compound required for inhibiting 50 % of the enzyme activity, were calculated.

Assay [5] has as its target T3, neuronal NOS (nNOS). Put plainly: Effect on rat cerebral ischemia model by nNOS inhibition: permanent occlusion model. Format: in vivo. The conditions noted are these: dose 10µg/kg+1µg/kg/min; intravenous 5 minutes after occlusion, then infused for 6 hours; cerebral infarct area after 24 hours. The text has this: Effect on rat cerebral ischemia model by neuronal NOS (nNOS) inhibition: permanent occlusion model According to a partly modified method of Tamura et al. (J. Cereb. Blood Flow Matab., 1, 53-60 (1981)), an cerebral ischemia model was established by permanently blocking a rat middle cerebral artery. That is, a rat was anesthetized with laughing gas - oxygen and halothane, and then, a hole was formed at a cranial bone in the periphery of oval foramen, thereby exposing the middle cerebral artery. Subsequently, a middle cerebral artery was clipped and coagulated, thereby established a permanent occlusion model. After 24 hours, a brain was excised out and cerebral infarct area were determined by use of triphenyltetrazolium chloride. A test compound was injected intravenously 5 minutes after the occlusion and subsequently infused for 6 hours. The suppression effect was investigated.

The target in assay [6] is T4, inducible NO synthase (iNOS). The assay can be described thus: Effect on rat-paw carrageenin edema model by inhibition of iNOS. It counts as in vivo. The conditions noted are these: oral, 1 hour prior to carrageenin, paw volume 4 hours after induction; for ED50: rat, read-out: Suppression Effect (ED₅₀). As to the method:
Effect on rat-paw carrageenin edema model by inhibition of inducible NO synthase (iNOS)
To a rat's left leg, 1 % carrageenin solution was subcutaneously administered to induce a paw edema. 4 hours after the induction, paw volume was measured. A test compound was orally administered 1 hour prior to the carrageenin administration. The suppression effect of the test compound was determined.
For orientation: In the carrageenan paw model, swelling and tenderness develop within hours.

Where [7] appears, read: cNOS extracted from rat cerebellum, 10 µM L-arginine, 10 minutes at 25°C, read-out: IC₅₀.
Setting [8] is: iNOS from peritoneal macrophages treated with lipopolysaccharide and interferon-γ, 150 µM L-arginine, 30 minutes at 37°C, read-out: IC₅₀.

Take `Br.COC[C@@H]1CCSC(N)=N1` [Example 30, (S)-2-amino-5,6-dihydro-4-methoxymethyl-4H-1,3-thiazine hydrobromide]: the IC50 in assay [1] (setting [7]) worked out at 30 nM; in assay [4] (setting [8]), 20 nM. The compound also came in with an ED₂₅ in assay [2] of 0.15 mg/kg. Moreover, the “Inhibitory Effect” value in assay [3] (dose 10 µg/kg intravenously) is given as “○ (10)”.
Consider `CCC[C@@H]1CCSC(N)=N1.Cl` [Example 31, (R)-2-amino-5,6-dihydro-4-propyl-4H-1,3-thiazine hydrochloride], for which the IC50 in assay [1] (setting [7]) came to 20 nM; in assay [4] (setting [8]), 10 nM. The compound also gave an ED₂₅ in assay [2] of 0.46 mg/kg. The “Suppression Effect” value in assay [5] is on record as “○ (10µg/kg+1µg/kg/min)”.
In the case of `CCC[C@H]1CCSC(N)=N1` [Example 4, (S)-2-amino-5,6-dihydro-4-propyl-4H-1,3-thiazine hydrobromide], the IC50 was 30 nM in assay [1] (setting [7]) and 20 nM in assay [4] (setting [8]).
The corresponding values for `CC(C)OC1CCSC(N)=N1` (stereo not shown) [Example 20, 2-amino-5,6-dihydro-4-isopropoxy-4H-1,3-thiazine fumarate] are 30 nM and 30 nM.
The corresponding values for `CCCC[C@@H]1CCSC(N)=N1` [Example 5, (R)-2-amino-4-butyl-5,6-dihydro-4H-1,3-thiazine hydrobromide] are 30 nM and 40 nM.
Take `CCOC1CCSC(N)=N1` (stereo not shown) [Example 21, Bis(2-amino-4-ethoxy-5,6-dihydro-4H-1,3-thiazine) fumarate]: the IC50 turned out to be 20 nM in assay [1] and 30 nM in assay [4]. This compound had an ED₂₅ in assay [2] of 0.06 mg/kg. For the same compound, the “Inhibitory Effect” value in assay [3] (dose 3 µg/kg intravenously) is recorded as “○ (3)”. For the same compound, the “Suppression Effect” value in assay [6] was “○”. In assay [6], the ED50 came out at 0.5 mg/kg.
Take `CC1(C)CCN=C(N)S1` [Example 29, 2-amino-5,6-dihydro-6,6-dimethyl-4H-1,3-thiazine hydrochloride]: the IC50 turned out to be 100 nM in assay [1] (setting [7]) and 200 nM in assay [4] (setting [8]).
As for `Br.CCC[C@@H]1CCSC(N)=N1` [Example 3, (R)-2-amino-5,6-dihydro-4-propyl-4H-1,3-thiazine hydrobromide], the ED₂₅ in assay [2] is 0.2 mg/kg. In assay [3] (dose 10 µg/kg intravenously), the “Inhibitory Effect” value is on record as “○ (10)”. Also, in assay [6], the “Suppression Effect” value is reported as “○” and the ED50 came out at 9 mg/kg.
Consider `CCOC1CC(C)SC(N)=N1` (stereo not shown) [Example 26, Bis(2-amino-4-ethoxy-5,6-dihydro-6-methyl-4H-1,3-thiazine) fumarate], for which the IC50 in assay [1] worked out at 80 nM; in assay [4], 90 nM.
